PubChem BioAssay (NCI)
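Exposure lasted 48 hours, with cells grown in 96-well plates and compounds tested at five concentrations. The concentration for 50% growth inhibition is given as GI50. At the TGI there is no net growth.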

Experiments:
Assay in all cases: DTP human tumour cell line panel, 48 h
786-0 renal = system: 786-0 renal
A498 renal = system: A498 renal
A549 NSCLC = system: A549 NSCLC
ACHN renal = system: ACHN renal
BT-549 breast = system: BT-549 breast
CAKI-1 renal = system: CAKI-1 renal
CCRF-CEM leukemia = system: CCRF-CEM leukemia
COLO 205 colon = system: COLO 205 colon
DU-145 prostate = system: DU-145 prostate
EKVX NSCLC = system: EKVX NSCLC
HCC-2998 colon = system: HCC-2998 colon
HCT-116 colon = system: HCT-116 colon
HCT-15 colon = system: HCT-15 colon
HL-60(TB) leukemia = system: HL-60(TB) leukemia
HOP-62 NSCLC = system: HOP-62 NSCLC
HOP-92 NSCLC = system: HOP-92 NSCLC
HS 578T breast = system: HS 578T breast
HT29 colon = system: HT29 colon
IGROV1 ovarian = system: IGROV1 ovarian
K-562 leukemia = system: K-562 leukemia
KM12 colon = system: KM12 colon
LOX IMVI melanoma = system: LOX IMVI melanoma
M14 melanoma = system: M14 melanoma
MALME-3M melanoma = system: MALME-3M melanoma
MCF7 breast = system: MCF7 breast
MDA-MB-231 breast = system: MDA-MB-231 breast
MDA-MB-435 = system: MDA-MB-435
MDA-MB-468 breast = system: MDA-MB-468 breast
MOLT-4 leukemia = system: MOLT-4 leukemia
NCI-H226 lung = system: NCI-H226 lung
NCI-H23 lung = system: NCI-H23 lung
NCI-H460 lung = system: NCI-H460 lung
NCI-H522 lung = system: NCI-H522 lung
NCI/ADR-RES ovarian = system: NCI/ADR-RES ovarian
OVCAR-3 ovarian = system: OVCAR-3 ovarian
OVCAR-4 ovarian = system: OVCAR-4 ovarian
OVCAR-5 ovarian = system: OVCAR-5 ovarian
OVCAR-8 ovarian = system: OVCAR-8 ovarian
PC-3 prostate = system: PC-3 prostate
RPMI-8226 leukemia = system: RPMI-8226 leukemia
RXF 393 renal = system: RXF 393 renal
SF-268 CNS = system: SF-268 CNS
SF-295 CNS = system: SF-295 CNS
SF-539 CNS = system: SF-539 CNS
SK-MEL-2 melanoma = system: SK-MEL-2 melanoma
SK-MEL-28 melanoma = system: SK-MEL-28 melanoma
SK-MEL-5 melanoma = system: SK-MEL-5 melanoma
SK-OV-3 ovarian = system: SK-OV-3 ovarian
SN12C renal = system: SN12C renal
SNB-19 CNS = system: SNB-19 CNS
SNB-75 CNS = system: SNB-75 CNS
SW-620 colon = system: SW-620 colon
T-47D breast = system: T-47D breast
TK-10 renal = system: TK-10 renal
U251 CNS = system: U251 CNS
UACC-257 melanoma = system: UACC-257 melanoma
UACC-62 melanoma = system: UACC-62 melanoma
UO-31 renal = system: UO-31 renal

CN(C)CCCNC(=O)c1cc(NC(=O)c2cc(NC(=O)c3ccc(/C=C/c4ccccc4)cc3)cn2C)cn1C
GI50 (786-0 renal): 9.14 µM
TGI (786-0 renal): > 31.3 µM
GI50 (A498 renal): 25.2 µM
TGI (A498 renal): > 31.3 µM
GI50 (A549 NSCLC): 13.3 µM
TGI (A549 NSCLC): > 31.3 µM
GI50 (ACHN renal): 11.5 µM
TGI (ACHN renal): > 31.3 µM
GI50 (BT-549 breast): 4.28 µM
TGI (BT-549 breast): 16.5 µM
GI50 (CAKI-1 renal): 10.9 µM
TGI (CAKI-1 renal): > 31.3 µM
GI50 (CCRF-CEM leukemia): 5.03 µM
TGI (CCRF-CEM leukemia): 21.5 µM
GI50 (COLO 205 colon): 9.44 µM
TGI (COLO 205 colon): 26.4 µM
GI50 (DU-145 prostate): 11.5 µM
TGI (DU-145 prostate): > 31.3 µM
GI50 (EKVX NSCLC): 10.6 µM
TGI (EKVX NSCLC): > 31.3 µM
GI50 (HCC-2998 colon): 10.1 µM
TGI (HCC-2998 colon): > 31.3 µM
GI50 (HCT-116 colon): 5.36 µM
TGI (HCT-116 colon): 13.4 µM
GI50 (HCT-15 colon): 7.26 µM
TGI (HCT-15 colon): 25.7 µM
GI50 (HL-60(TB) leukemia): 7.05 µM
TGI (HL-60(TB) leukemia): 20.7 µM
GI50 (HOP-62 NSCLC): 7.16 µM
TGI (HOP-62 NSCLC): 19.8 µM
GI50 (HOP-92 NSCLC): 3.95 µM
TGI (HOP-92 NSCLC): 17.7 µM
GI50 (HS 578T breast): 8.39 µM
TGI (HS 578T breast): > 31.3 µM
GI50 (HT29 colon): 5.89 µM
TGI (HT29 colon): 21.1 µM
GI50 (IGROV1 ovarian): 22.5 µM
TGI (IGROV1 ovarian): > 31.3 µM
GI50 (K-562 leukemia): 5.83 µM
TGI (K-562 leukemia): 19 µM
GI50 (KM12 colon): 7.16 µM
TGI (KM12 colon): 18.5 µM
GI50 (LOX IMVI melanoma): 4.67 µM
TGI (LOX IMVI melanoma): 8.86 µM
GI50 (M14 melanoma): 5.05 µM
TGI (M14 melanoma): 10.1 µM
GI50 (MALME-3M melanoma): 7.41 µM
TGI (MALME-3M melanoma): > 31.3 µM
GI50 (MCF7 breast): 1.71 µM
TGI (MCF7 breast): 6.85 µM
GI50 (MDA-MB-231 breast): 8.81 µM
TGI (MDA-MB-231 breast): > 31.3 µM
GI50 (MDA-MB-435): 8.48 µM
TGI (MDA-MB-435): > 31.3 µM
GI50 (MDA-MB-468 breast): 5.72 µM
TGI (MDA-MB-468 breast): 14.5 µM
GI50 (MOLT-4 leukemia): 7.27 µM
TGI (MOLT-4 leukemia): 25.9 µM
GI50 (NCI-H226 lung): 9.93 µM
TGI (NCI-H226 lung): > 31.3 µM
GI50 (NCI-H23 lung): 13.2 µM
TGI (NCI-H23 lung): > 31.3 µM
GI50 (NCI-H460 lung): 6.91 µM
TGI (NCI-H460 lung): 16.2 µM
GI50 (NCI-H522 lung): 7.34 µM
TGI (NCI-H522 lung): 24.2 µM
GI50 (NCI/ADR-RES ovarian): 7.76 µM
TGI (NCI/ADR-RES ovarian): 24.3 µM
GI50 (OVCAR-3 ovarian): 6.75 µM
TGI (OVCAR-3 ovarian): 26.4 µM
GI50 (OVCAR-4 ovarian): 16.1 µM
TGI (OVCAR-4 ovarian): > 31.3 µM
GI50 (OVCAR-5 ovarian): 20.3 µM
TGI (OVCAR-5 ovarian): > 31.3 µM
GI50 (OVCAR-8 ovarian): 6.5 µM
TGI (OVCAR-8 ovarian): 18.7 µM
GI50 (PC-3 prostate): 10.1 µM
TGI (PC-3 prostate): > 31.3 µM
GI50 (RPMI-8226 leukemia): 3.51 µM
TGI (RPMI-8226 leukemia): 16.5 µM
GI50 (RXF 393 renal): 3.2 µM
TGI (RXF 393 renal): 19 µM
GI50 (SF-268 CNS): 10.6 µM
TGI (SF-268 CNS): > 31.3 µM
GI50 (SF-295 CNS): 8.56 µM
TGI (SF-295 CNS): > 31.3 µM
GI50 (SF-539 CNS): 5.41 µM
TGI (SF-539 CNS): 10.9 µM
GI50 (SK-MEL-2 melanoma): 5.32 µM
TGI (SK-MEL-2 melanoma): 10.9 µM
GI50 (SK-MEL-28 melanoma): 15.2 µM
TGI (SK-MEL-28 melanoma): > 31.3 µM
GI50 (SK-MEL-5 melanoma): 8.85 µM
TGI (SK-MEL-5 melanoma): > 31.3 µM
GI50 (SK-OV-3 ovarian): 17.6 µM
TGI (SK-OV-3 ovarian): > 31.3 µM
GI50 (SN12C renal): 7.41 µM
TGI (SN12C renal): > 31.3 µM
GI50 (SNB-19 CNS): 16.7 µM
TGI (SNB-19 CNS): > 31.3 µM
GI50 (SNB-75 CNS): 1.98 µM
TGI (SNB-75 CNS): 24.6 µM
GI50 (SW-620 colon): 6.62 µM
TGI (SW-620 colon): 14.9 µM
GI50 (T-47D breast): 6.01 µM
TGI (T-47D breast): > 31.3 µM
GI50 (TK-10 renal): 12.1 µM
TGI (TK-10 renal): > 31.3 µM
GI50 (U251 CNS): 5.36 µM
TGI (U251 CNS): 10.7 µM
GI50 (UACC-257 melanoma): 10.5 µM
TGI (UACC-257 melanoma): > 31.3 µM
GI50 (UACC-62 melanoma): 7.46 µM
TGI (UACC-62 melanoma): > 31.3 µM
GI50 (UO-31 renal): 9.91 µM
TGI (UO-31 renal): > 31.3 µM
